Where “and” joins values, the source holds several entries; their conditions need not be identical. Equal values may be shown once.
Experiments:
human SGLT2 = target: T1, human SGLT2 (Homo sapiens, UniProt P31639); assay: SGLT2 functional assay: inhibition of AMG uptake in CHO-FlpIn cells stably expressing human SGLT2; assay type: cell-based; details: individual runs (Run No.), read-out: hSGLT2 IC50
T1 construct: expressed in transfected cells; host or cells: CHO-FlpIn (Invitrogen)
T1 sequence (P31639 1-672): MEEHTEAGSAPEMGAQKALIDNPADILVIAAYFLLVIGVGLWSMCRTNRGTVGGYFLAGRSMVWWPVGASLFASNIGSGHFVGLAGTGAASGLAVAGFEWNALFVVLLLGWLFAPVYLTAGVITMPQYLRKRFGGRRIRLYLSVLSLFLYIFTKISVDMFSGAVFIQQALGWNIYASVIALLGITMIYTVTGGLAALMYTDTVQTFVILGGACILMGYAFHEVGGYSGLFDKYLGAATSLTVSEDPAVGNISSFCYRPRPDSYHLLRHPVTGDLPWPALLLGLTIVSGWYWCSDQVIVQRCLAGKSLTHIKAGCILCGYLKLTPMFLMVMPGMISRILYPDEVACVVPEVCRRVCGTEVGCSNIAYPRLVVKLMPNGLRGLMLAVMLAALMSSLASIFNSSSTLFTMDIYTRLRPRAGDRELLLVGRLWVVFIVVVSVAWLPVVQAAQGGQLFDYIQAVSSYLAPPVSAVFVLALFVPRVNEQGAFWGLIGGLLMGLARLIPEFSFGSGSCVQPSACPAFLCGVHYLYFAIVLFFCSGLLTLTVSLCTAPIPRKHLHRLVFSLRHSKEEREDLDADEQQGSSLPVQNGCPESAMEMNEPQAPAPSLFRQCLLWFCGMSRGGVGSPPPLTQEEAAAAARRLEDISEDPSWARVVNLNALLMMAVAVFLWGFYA
From the text: The SGLT2 functional assay was designed to detect the inhibition of methyl-alpha-D glucopyranoside (AMG—a non-metabolizable form of glucose) uptake via the SGLT2 transporter. The SGLT2 transporter recovers glucose from the proximal tubules of the kidney; its inhibition results in sugar wasted in the urine. The positive control compound, Phlorizin, is a known inhibitor of glucose uptake for SGLT2 and was used for comparing the high percent effect of SGLT2 inhibition of the test compounds.
CHO-FlpIn (Invitrogen, Carlsbad, Calif.) cells stably expressing human SGLT2 (pcDNA5/FRT) were plated in Iso-TC 96 well plates (Perkin Elmer, Waltham, Mass.) at a density of 100,000 cells/well in 100 microL of growth media (1:1 F-12/DMEM media (Gibco, Carlsbad, Calif.), 10% FBS (Sigma, St. Louis Mo.), 1× Pen/Strep (Gibco, Carlsbad, Calif.), 600 microg/mL Hygromycin (Invitrogen, Carlsbad, Calif.)). Prior to treating with test compound, confluent cells were serum starved for 2 hours at 37° C. in 1:1 F-12/DMEM media, replacing with fresh F-12/DMEM media after 1 hour. […] Cell plates were then incubated for 3 hours at 37° C. for AMG uptake.

[1] = Pharmacokinetic testing in rats (IV or PO); assay type: in vivo; details: rat
Protocol: Examples 1A, 2A, 4A, 12A, and 14A were tested in rats to assess pharmacokinetic parameters including maximum concentration (Cmax), area under the plasma concentration time curve (AUC), clearance (CL), steady state volume of distribution (Vss), half life (t1/2), and bioavailability (F). Male Sprague Dawley rats (˜300 g) were used. Rats received compound by intravenous (IV) or oral gavage (PO) administration and the doses tested including vehicle to formulate dosing solutions are listed in Table 5.
Following IV or PO administration, 0.2 mL blood was sampled from the jugular vein at various timepoints (Table 5). Twenty microL aliquots of plasma samples and standards were subjected to protein precipitation with acetonitrile containing an internal standard. Samples were vortexed and centrifuged to obtain supernatant which was analyzed by LC-MS/MS. Analyst (Version 1.4.1) was used to measure peak areas and peak area ratios of analyte to internal standard were calculated. LC-MS/MS conditions are as follows: Mass Spectrometer+Source Type was Sciex API 4000−Turbo Spray; HPLC pump was Shimadzu; Autosampler was CTC PAL Autosampler; Injection volume was 3.0 to 10 microL; A gradient was used with mobile phase A: 10 mM ammonium acetate and 1% Isopropyl alcohol in water; B: Acetonitrile; Flowrate 0.300 mL per minute (Column 2.0×30 mm 5 microm LUNA C18 column (phenomenex)). Detection mode was negative.
A calibration curve was constructed from the peak area ratios of the standards to the internal standard by applying a weighted linear (1/x or 1/x2) regression. The dynamic range of the standard curve was 5.00 ng/mL to 5000 ng/mL.
Pharmacokinetic parameters were determined from individual animal data using non-compartmental analysis in Watson (version 7.2). Concentrations below the limit of quantitation (BLQ) were recorded as 0 ng/mL for use in calculations.
The following calculations were used: AUC(0−τ)=Determined using the linear trapezoidal method AUC(0−□)=AUC(0−τ) plus extrapolated area determined by dividing plasma concentration at τ by the slope of the terminal log-linear phase CL=Dose/AUC(0−∞) Vdss=CL×MRT Cmax=Recorded directly from plasma concentration time curve Tmax=Recorded directly from plasma concentration time curve t½=ln(0.5)/slope of the terminal log-linear phase F %=AUC(0−∞)PO per dose/AUC(0−∞)IV per dose C(0)=Extrapolated by linear regression from the apparent distribution phase following IV administration MRT=AUMC(AUC(0−∞)/AUC(0−∞)

hSGLT1 = target: T2, hSGLT1 (Homo sapiens, UniProt P13866); assay: SGLT1 functional assay: hSGLT1 IC50 (selectivity counter-screen to the SGLT2 AMG uptake assay); assay type: cell-based; details: individual runs (Run No.)
T2 sequence (P13866 1-664): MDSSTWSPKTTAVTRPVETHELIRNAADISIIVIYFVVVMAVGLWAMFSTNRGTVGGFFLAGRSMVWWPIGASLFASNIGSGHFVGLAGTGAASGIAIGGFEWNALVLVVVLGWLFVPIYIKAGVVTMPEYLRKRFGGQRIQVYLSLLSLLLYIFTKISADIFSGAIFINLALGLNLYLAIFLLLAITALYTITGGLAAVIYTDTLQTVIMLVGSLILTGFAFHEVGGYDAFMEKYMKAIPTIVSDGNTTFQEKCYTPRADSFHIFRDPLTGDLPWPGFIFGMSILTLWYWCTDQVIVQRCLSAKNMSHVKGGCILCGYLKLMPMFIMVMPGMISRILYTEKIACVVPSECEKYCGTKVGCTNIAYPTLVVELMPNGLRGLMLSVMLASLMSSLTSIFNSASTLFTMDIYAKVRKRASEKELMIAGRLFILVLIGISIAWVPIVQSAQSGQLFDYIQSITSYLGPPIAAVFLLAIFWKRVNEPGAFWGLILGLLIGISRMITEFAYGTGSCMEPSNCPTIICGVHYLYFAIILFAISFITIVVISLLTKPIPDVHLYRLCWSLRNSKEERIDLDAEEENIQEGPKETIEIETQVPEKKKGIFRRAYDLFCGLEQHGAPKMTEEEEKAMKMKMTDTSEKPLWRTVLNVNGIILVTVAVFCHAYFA

[2] = male, Sprague Dawley, plasma, IV, 2 mg/kg
[3] = male, Sprague Dawley, plasma, PO, 10 mg/kg, PEG200/0.5% MC

IC50 (human SGLT2): 2.28 nM and 3.12 nM and 2.39 nM and 2.87 nM | AUC(0-inf) [1, 2]: 1060 ng·h/mL | clearance [1, 2]: 31.7 mL/min/kg | half-life [1, 2]: 1.36 h | Vd ([1]; male, Sprague Dawley, plasma, IV, 2 mg/kg, read-out: Vss): 1.69 L/kg | AUC(0-inf) [1, 3]: 2290 ng·h/mL | Cmax [1, 3]: 551 ng/mL | half-life [1, 3]: 1.71 h | F ([1]; PO, 10 mg/kg, PEG200/0.5% MC): 43.5% | IC50 (hSGLT1): > 10000 nM
SMILES: OC[C@@]12CO[C@@](c3ccc(Cl)c(Cc4ccc(OC5COC5)cc4)c3)(O1)[C@H](O)[C@@H](O)[C@@H]2O [Example 14A, (1S,2S,3S,4R,5S)-5-{4-chloro-3-[4-(oxetan-3-yloxy)-benzyl]-phenyl}-1-hydroxymethyl-6,8-dioxa-bicyclo[3.2.1]octane-2,3,4-triol]

— patent US8080580B2, “Dioxa-bicyclo[3.2.1]octane-2,3,4-triol derivatives” (Pfizer Inc., priority 2008, dated 2011)
